Laboratory results from patent US20050164308A1, “Beta-lactamase CD4+ T-cell epitopes” (priority 2003, published 2005).

What was measured:
CD4+ T-cells [1] = assay type: cell-based, human; conditions: for effect of the change on the percent of responders to the modified epitope sequence: epitope #49 substitution, 69 donors
[2] = system: HLA-DRB1 and DQB1 antigens; test: HLA association with responses to epitope peptides; set-up: species or system human
Experimental: HLA-DR and DQ types were analyzed for associations with responses to defined epitope peptides. A Chi-squared analysis, with one degree of freedom was used to determine significance. Where an allele was present in both the responder and non-responder pools, a relative risk was calculated.
The HLA-DR and DQ expression of 65 of the donors tested in both rounds of assay testing described above were assessed using a commercially available PCR-based HLA typing kit (Bio-Synthesis). […] Wherever the HLA antigen was present in both reactive and non-reactive donors, a relative risk (i.e., the increased or decreased likelihood of presenting a reaction conditioned on the presence of the HLA antigen) was computed. […] In addition, the mean and standard error of quantitative response for each peptide were determined.
The magnitude of the proliferative response to an individual peptide in responders and non-responders expressing epitope-associated HLA alleles were also be analyzed. An “individual responder to the peptide” is defined by a stimulation index of greater than 2.95.

CD4+ T-cells [3] = test: I-MUNE assay: proliferation of CD4+ T-cells with differentiated dendritic cells in response to beta-lactamase 15-mer peptides; assay type: cell-based, human

## GTTRSYANASIGLFG (variant of SEQ ID NO82) [Peptide L149S, peptide #49 with the substitution L149S]
CD4+ T-cells [1]
  effect on the epitope response rate: had an effect

## GTTRLYANASLGLFG (beta-lactamase epitope) [Peptide I155L, peptide #49 with the substitution I155L]
CD4+ T-cells [1]
  effect of the change on the percent of responders to the modified epitope sequence: little effect

## GTTRLYANASFGLFG (beta-lactamase epitope) [Peptide I155F, peptide #49 with the substitution I155F]
CD4+ T-cells [1]
  effect of the change on the percent of responders to the modified epitope sequence: little effect

## #36 (MLDLATYTAGGLPLQ; listed as Enterobacter cloacae)
[2]; donors reactive to the peptide
  quantitative response of DR1+ responders: 7.8
  quantitative response of DR1- responders: 4.42
CD4+ T-cells [3]
  response (percent responders): 12.11%

## #107 (TGGFGSYVAFIPEKQ; listed as Enterobacter cloacae)
[2]; among non-responders
  response of DR13 non-responders lower than the other genotypes: 23%
[2]; donors reactive to the peptide
  increase of quantitative response in DR1+ relative to DR1- responders: 27%
  quantitative response of DR1+ responders: 5.4
  quantitative response of DR1- responders: 4.2
CD4+ T-cells [3]
  response (percent responders): 12.11%

## tetanus toxoid [reference compound]
CD4+ T-cells [3]; approximately 5 Lf/mL
  positive control proliferative response: robust positive control responses

## GTTRLYANASVGLFG (beta-lactamase epitope) [Peptide I155V, peptide #49 with the substitution I155V]
CD4+ T-cells [1]
  effect of the change on the percent of responders to the modified epitope sequence: increased the percent of responders
